The values that follow come from patent publication US6962912B2, “Substituted pyrazolo[4,3-e]diazepines, pharmaceutical compositions containing them, use as medicinal products and processes for preparing them” (Warner-Lambert LLC, priority 2000, dated 2005).

One data set concerns production of TNFα. Description: in vivo TNFα model in Wistar rats (LPS-induced). The following applies: oral administration 30 min before i.p. LPS; plasma 90 min after LPS; male Wistar rats. The text has this:
TNFα is a cytokine which plays a central role in the mechanisms of inflammation. Its production can be induced by an injection of lipopolysaccharide (LPS). It has been shown that the increase in intracellular cAMP, produced in particular by PDE4 inhibitors, decreases the production of TNFα in in vitro and in vivo models. It is thus a matter here of quantifying in vivo the anti-inflammatory potential of the compounds of the invention, administered orally (p.o.) by measuring the inhibition of the production of TNFα in the plasma of rats, these rats having received an intraperitoneal (i.p.) injection of lipopolysaccharide (LPS). The treatment with the compounds of the invention or the vehicle are [sic] administered orally to male Wistar rats, 30 min before the injection of LPS. The rats are sacrificed 90 min after the stimulation with LPS, the blood is collected onto EDTA and the TNFα concentration is measured in each plasma sample. […] References • Chen, Y. L., Le Vraux, V., Giroud, J. P. and Chauvelot-Moachon L. (1994). Anti-tumor necrosis factor properties of non-peptide drugs in acute-phase responses. […] Int. J. Immunopharmacol., 16 (10), 805-816. Model of Eosinophilia in Rats

In the next data set the target is PDE4. Put plainly: Inhibition of PDE4 (cytosolic enzyme preparation from U937 line), compared with rolipram. The class given is biochemical, human. The note with it: PDE4 enzyme preparation obtained from the U937 line.

As a reminder, the IC50 is the concentration that inhibits the measured activity by half. As to `CCC(C)c1nn(CC)c2c1N=C(c1ccccc1)CNC2=O` (racemic) [Example 68, (±)3-sec-Butyl-1-ethyl-5-phenyl-6,7-dihydro-1H-pyrazolo[4,3-e][1,4]diazepin-8-one], the “inhibition of the production of TNFα in the plasma of rats” value (shortened to “inhibition of the production of TNFα”) with production of TNFα is “excellent activity”. At PDE4, this molecule showed an IC50 of 6.2 nM.

For `CCn1nc(C)c2c1C(=O)NCC(C(C)(C)C)N2` (stereo not shown) [5-tert-Butyl-1-ethyl-3-methyl-4,5,6,7-tetrahydro-1H-pyrazolo[4,3-e][1,4]diazepin-8-one], in the data set on production of TNFα, the “inhibition of the production of TNFα” value was “excellent activity”.

As a reminder, the melting point is the temperature of the solid-liquid transition. For `CCCn1nc(C)c2c1C(=S)NCC(c1ccccc1)=N2` [Example 22, 3-Methyl-5-phenyl-1-propyl-6,7-dihydro-1H-pyrazolo[4,3-e][1,4]diazepin-8-thione], the melting point came to 156 °C. Further, at PDE4, the 50% inhibitory concentration (IC50) turned out to be 28 nM.

As for `CCn1nc(C(C)C)c2c1C(=O)NCC(c1ccc(N)cc1)=N2` [Example 27, 5-(4-Aminophenyl)-1-ethyl-3-isopropyl-6,7-dihydro-1H-pyrazolo[4,3-e][1,4]diazepin-8-one], the melting point came out at 191 °C. Besides, the IC50 on PDE4 was 3.8 nM.

As to `CCCn1nc(C)c2c1C(=O)NCC(c1ccc(N)cc1)=N2` [Example 29, 5-(4-Aminophenyl)-3-methyl-1-propyl-6,7-dihydro-1H-pyrazolo[4,3-e][1,4]diazepin-8-one], the melting point was 225 °C. In addition, on PDE4, 330 nM corresponded to half-maximal inhibition (IC50).

`CCn1nc(C)c2c1C(=O)NCC(C(C)(C)C)=N2` [Example 33, 5-tert-Butyl-1-ethyl-3-methyl-6,7-dihydro-1H-pyrazolo[4,3-e][1,4]diazepin-8-one]: the melting point turned out to be 120 °C. Inhibition at PDE4 was half-maximal at 110 nM (IC50).

Turning to `CCn1nc(C(C)C)c2c1C(=O)NCC(C(C)(C)C)=N2` [Example 35, 5-tert-Butyl-1-ethyl-3-isopropyl-6,7-dihydro-1H-pyrazolo[4,3-e][1,4]diazepin-8-one], the “inhibition of the production of TNFα” value in the data set with production of TNFα is listed as “excellent activity”. The same molecule returned an IC50 on PDE4 of 0.7 nM.

As for `CCCCc1nn(CC)c2c1N=C(c1ccccc1)CNC2=S` [Example 52, 3-Butyl-1-ethyl-5-phenyl-6,7-dihydro-1H-pyrazolo[4,3-e][1,4]diazepin-8-thione], the melting point turned out to be 151.5 °C. The molecule further gave a 50% inhibitory concentration (IC50) against PDE4 of 0.65 nM.

Consider `CCn1nc(C)c2c1C(=O)NCC(c1cccnc1)=N2` [Example 53, 1-Ethyl-3-methyl-5-pyrid-3-yl-6,7-dihydro-1H-pyrazolo[4,3-e][1,4]diazepin-8-one], for which the melting point was determined as 178 °C. The same molecule had an IC50 on PDE4 of 260 nM.

As to `CCn1nc(C)c2c1C(=O)NCC(c1ccccn1)=N2` [Example 54, 1-Ethyl-3-methyl-5-pyrid-2-yl-6,7-dihydro-1H-pyrazolo[4,3-e][1,4]diazepin-8-one], the melting point worked out at 153 °C. For the same molecule, the IC50 against PDE4 was 240 nM.

As to `CCn1nc(C(C)(C)C)c2c1C(=NC#N)NCC(c1ccccc1)=N2` [Example 57, 3-tert-Butyl-1-ethyl-5-phenyl-6,7-dihydro-1H-pyrazolo[4,3-e][1,4]diazepin-8-ylidene-cyanamide], the melting point turned out to be 250 °C. Moreover, half-maximal inhibition against PDE4 (IC50) was put at 0.13 nM.

On to `CCn1nc(C)c2c1C(=O)NCC(c1ccc(C(F)(F)F)cc1)=N2` [Example 60, 1-Ethyl-3-methyl-5-(4-trifluoromethylphenyl)-6,7-dihydro-1H-pyrazolo[4,3-e][1,4]diazepin-8-one], for which the melting point was determined as 195 °C. In addition, it took 580 nM to reach half-maximal inhibition at PDE4 (IC50).

On to `CCCn1nc(C(C)C)c2c1C(=S)NCC(c1ccc(C)cc1)=N2` [Example 63, 3-Isopropyl-1-propyl-5-p-tolyl-6,7-dihydro-1H-pyrazolo[4,3-e][1,4]diazepin-8-thione], for which the melting point stood at 162.9 °C. On PDE4, the IC50 turned out to be 5 nM.

On to `CCCn1nc(C(C)(C)C)c2c1C(=S)NCC(C(C)(C)C)=N2` [Example 64, 3,5-Di-tert-butyl-1-propyl-6,7-dihydro-1H-pyrazolo[4,3-e][1,4]diazepin-8-thione], for which the melting point amounted to 205 °C. Also, the midpoint of inhibition at PDE4, the IC50, lay at 4.6 nM.

`CCCn1nc(C(C)C)c2c1C(=S)NCC(C(C)(C)C)=N2` [Example 65, 5-tert-Butyl-3-isopropyl-1-propyl-6,7-dihydro-1H-pyrazolo[4,3-e][1,4]diazepin-8-thione] registered a melting point of 165 °C. This molecule also displayed an IC50 on PDE4 of 1.5 nM.

The molecule `CCn1nc(C(C)C)c2c1C(=S)NCC(c1ccc(C)cc1)=N2` [Example 66, 1-Ethyl-3-isopropyl-5-p-tolyl-6,7-dihydro-1H-pyrazolo[4,3-e][1,4]diazepin-8-thione] gave a melting point of 178 °C. The molecule further showed an IC50 against PDE4 of 0.63 nM.

In the case of `CCn1nc(C(C)C)c2c1C(=S)NCC(C(C)(C)C)=N2` [Example 67, 5-tert-Butyl-1-ethyl-3-isopropyl-6,7-dihydro-1H-pyrazolo[4,3-e][1,4]diazepin-8-thione], the melting point turned out to be 218 °C. On PDE4, this molecule had a concentration for half-maximal inhibition (IC50) of 1 nM.

Regarding `CCn1nc(C(C)C)c2c1C(=NC#N)NCC(C(C)(C)C)=N2` [Example 80, 5-tert-Butyl-1-ethyl-3-isopropyl-6,7-dihydro-1H-pyrazolo-[4,3-e][1,4]diazepin-8-ylidenecyanamide], the melting point is 243 °C. For the same molecule, on PDE4, the IC50 came to 0.22 nM.

`CCn1nc(C(C)C)c2c1C(=NC#N)NCC(c1ccc(C)cc1)=N2` [Example 81, 1-Ethyl-3-isopropyl-5-p-tolyl-6,7-dihydro-1H-pyrazolo-[4,3-e][1,4]diazepin-8-ylidenecyanamide] came in with a melting point of 245 °C. The IC50 against PDE4 was determined as 0.54 nM.

Molecule `CCn1nc(C(C)C)c2c1C(=O)NCC(c1ccc(OC)cc1)=N2` [Example 82, 1-Ethyl-3-isopropyl-5-(4-methoxyphenyl)-6,7-dihydro-1H-pyrazolo[4,3-e][1,4]diazepin-8-one] showed a melting point of 150 °C. The molecule further gave an IC50 against PDE4 of 62 nM.

`CCn1nc(C)c2c1C(=NC#N)NCC(c1ccc(OC)cc1)=N2` [Example 84, 1-Ethyl-3-methyl-5-(4-methoxyphenyl)-6,7-dihydro-1H-pyrazolo[4,3-e][1,4]diazepin-8-ylidenecyanamide] gave a melting point of 265 °C. In addition, the IC50 on PDE4 was determined as 60 nM.

Regarding `CCCn1nc(C(C)C)c2c1C(=O)NCC(c1ccc(OC)cc1)=N2` [Example 85, 3-Isopropyl-5-(4-methoxyphenyl)-1-propyl-6,7-dihydro-1H-pyrazolo[4,3-e][1,4]diazepin-8-one], the melting point is 142 °C. The same molecule displayed an IC50 on PDE4 of 200 nM.

As to `CCn1nc(C(C)(C)C)c2c1C(=O)NCC(c1ccc(OC)cc1)=N2` [Example 86, 3-tert-Butyl-1-ethyl-5-(4-methoxyphenyl)-6,7-dihydro-1H-pyrazolo[4,3-e][1,4]diazepin-8-one], the melting point turned out to be 180 °C. This molecule registered an IC50 at PDE4 of 310 nM.

`CCCn1nc(C(C)(C)C)c2c1C(=O)NCC(c1ccc(OC)cc1)=N2` [Example 87, 3-tert-Butyl-5-(4-methoxyphenyl)-1-propyl-6,7-dihydro-1H-pyrazolo[4,3-e][1,4]diazepin-8-one] returned a melting point of 167 °C. The molecule also displayed an IC50 at PDE4 of 41 nM.

Turning to `CCn1nc(C)c2c1C(=NC#N)NCC(c1ccc(O)cc1)=N2` [Example 88, 1-Ethyl-3-methyl-5-(4-hydroxyphenyl)-6,7-dihydro-1H-pyrazolo[4,3-e][1,4]diazepin-8-ylidenecyanamide], the melting point was 300 °C. The molecule further showed a concentration for half-maximal inhibition (IC50) against PDE4 of 2.1 nM.

In turn, `CCn1nc(C)c2c1C(=O)NCC(c1cc(OC)c(OC)c(OC)c1)=N2` [Example 91, 1-Ethyl-3-methyl-5-(3,4,5-trimethoxyphenyl)-6,7-dihydro-1H-pyrazolo[4,3-e][1,4]diazepin-8-one] returned a melting point of 208 °C. Moreover, the IC50 against PDE4 came out at 900 nM.

In turn, `CCn1nc(C)c2c1C(=O)NCC(c1cccc(O)c1)=N2` [Example 92, 1-Ethyl-5-(3-hydroxyphenyl)-3-methyl-6,7-dihydro-1H-pyrazolo[4,3-e][1,4]diazepin-8-one] had a melting point of 204 °C. The IC50 at PDE4 was found to be 92 nM.

Regarding `CCn1nc(C)c2c1C(=O)NCC(c1ccccc1O)=N2` [Example 93, 1-Ethyl-5-(2-hydroxyphenyl)-3-methyl-6,7-dihydro-1H-pyrazolo[4,3-e][1,4]diazepin-8-one], the melting point is 220 °C. The molecule also gave an IC50 against PDE4 of 7.4 nM.

Consider `CCn1nc(C(C)C)c2c1C(=O)NCC(c1ccc(O)cc1)=N2` [Example 94, 1-Ethyl-5-(4-hydroxyphenyl)-3-isopropyl-6,7-dihydro-1H-pyrazolo[4,3-e][1,4]diazepin-8-one], for which the melting point was 230 °C. This molecule showed an IC50 against PDE4 of 2.1 nM.

`CCCn1nc(C(C)C)c2c1C(=O)NCC(c1ccc(O)cc1)=N2` [Example 95, 5-(4-Hydroxyphenyl)-3-isopropyl-1-propyl-6,7-dihydro-1H-pyrazolo[4,3-e][1,4]diazepin-8-one]: the melting point is 230 °C. On PDE4, this molecule yielded an IC50 of 15 nM.

Molecule `CCn1nc(C(C)(C)C)c2c1C(=O)NCC(c1ccc(O)cc1)=N2` [Example 96, 3-tert-Butyl-1-ethyl-5-(4-hydroxyphenyl)-6,7-dihydro-1H-pyrazolo[4,3-e][1,4]diazepin-8-one] had a melting point of 264 °C. The molecule further had an IC50 on PDE4 of 4.9 nM.
